According to PubChem BioAssay AID2060612 (Molecular Pharmacology Branch, DTP, NCI, 2025):
“And” between values parts separate entries of the source, which are not always exact repeats. Identical values can stand only once. Each block holds one compound with its values, some of them ahead of it.

Test system: 565232-114-T-J1-PDC complex spheroid viability
Assay: Anticancer human tumor 565232-114-T-J1-PDC patient-derived bladder carcinoma cell line growth inhibition [CLK]
Settings: for viability, T/C: stronger effect = lower value
Source text: A high-throughput screen of multi-cell type tumor spheroids was designed to identify active combinations of […] and targeted small molecules. Complex spheroids include a stromal component modeled by human endothelial cells (HUVEC) and fibroblasts modeled by human mesenchymal stem cells (MSCs). The concentration ranges selected for each drug and investigational agent were based upon clinically achievable concentrations if the clinical Cmax of the agent was known.
Compounds. The drugs and investigational agents: cirtuvivint (SM08502; NSC835563), CC-671 (NSC850746), vemurafenib (NSC761431), tapotoclax (NSC804041), sotorasib (NSC818433), adagrasib (NSC831453), MRTX-1133 (NSC836407), BAY2416964 (NSC825713), copanlisib (NSC816437), inavolisib (NSC800729), abemaciclib (NSC768073), osimertinib (NSC779217), entinostat (NSC756642), eltanexor (KPT-8602, NSC794443), venetoclax (NSC766270), ceralasertib (NSC777638), bortezomib (NSC756655), olaparib (NSC753686), talazoparib (NSC767125), alisertib (NSC759677), peposertib (NSC802822), gemcitabine (NSC613327), 5-fluorouracil (NSC19893), SN-38 (NSC673596), oxaliplatin (NSC266046), paclitaxel (NSC125973), and doxorubicin (NSC123127), were obtained from the National Cancer Institute (NCI) Developmental Therapeutics Program Chemical Repository. The FDA-approved anticancer drug set is available from the Developmental Therapeutics Program at https://dtp.cancer.gov/organization/dscb/obtaining/available plates.htm. […] The stock solutions were prepared in dimethyl sulfoxide (DMSO, Sigma-Aldrich, St. Louis, MO, cat. D2650), except for the platinum complexes which were prepared in saline (Quality Biological, Gaithersburg, MD, cat. 114-055-101), at 800-fold the tested concentration and stored at -70 degrees C prior to their use. All drugs and investigational agents were tested over a range starting from a high concentration at or near the clinical Cmax and decreasing in half-log increments. If the clinical Cmax for an agent had not been determined, the highest concentration tested was 10 microM.
Cell Culture. All cells were maintained in an incubator at 37 degrees C and 5% CO2 with 95% humidity. The PDC lines were cultured according to standard operating procedures established by the NCI PDMR. Briefly, all PDCs were thawed and cultured in Matrigel-coated flasks prepared with a working solution of 1X Ham's F-12 nutrient mix, without supplementation (Invitrogen, Waltham, MA, cat. 11765054), 100 U/mL penicillin-streptomycin (Invitrogen, cat. 15140122), and 2.5% Matrigel (Corning Inc., Corning, NY, cat. 354248) for the first three passages. The 947758-054-R-J2-PDC line was cultured in 6B/Colon 1A media, which includes advanced DMEM/F-12 (Thermo Fisher Scientific, cat. 12634028), 10 mM HEPES (Thermo Fisher Scientific, cat. 15630080), 1X GlutaMAX supplement (Thermo Fisher Scientific, cat. 35050061), 0.1 mg/mL primocin (InvivoGen, cat. ant-pm-2), 10% defined fetal bovine serum, heat inactivated (HyClone Laboratories Inc., cat. SH30070.03HI), 1.25 mM N-Acetyl-L-cysteine (Sigma-Aldrich, cat. A9165), 10 mM nicotinamide (Sigma-Aldrich, cat. N0636), 1X B-27 supplement (Thermo Fisher Scientific, cat. 17504044), 1X N-2 supplement (Thermo Fisher Scientific, cat. 17502048), and 10 microM Y-27632 dihydrochloride (Tocris Bioscience, cat. 1254). The 876862-298-R-J1-PDC was cultured in 6E media, which includes all 6B/Colon 1A media components plus 50% L-WRN conditioned media (ATCC, cat. CRL-3276), 50 ng/mL recombinant human EGF recombinant protein (hEGF; Thermo Fisher Scientific, cat. PHG0311), 10 ng/mL recombinant human fibroblast growth factor 10 (hGFG-10; PeproTech, cat. 100-26), 1 ng/mL recombinant human fibroblast growth factor 2 (hFGF-2; PeproTech, cat. 100-18B), and 1 µM prostaglandin E2 (PGE2; Tocris, cat. 2296). The 227483-062-R1-J1-PDC line was cultured in Panc media, containing all 6E components except hFGF-2, with the addition of 500 nM SB-431542 (Selleckchem, cat. S1067) and 10 nM gastrin (Tocris, cat. 3006). […]

[1] = curve of first compound, second compound 0.0316 µM
[2] = curve of first compound, second compound 0.1 µM
[3] = curve of first compound, second compound 0.316 µM
[4] = curve of first compound, second compound 1 µM
[5] = curve of first compound, second compound 3.16 µM
[6] = curve of first compound, second compound 10 µM
[7] = second compound 0.0316 µM, first compound 0.0316 µM
[8] = second compound 0.0316 µM, first compound 0.1 µM
[9] = second compound 0.0316 µM, first compound 0.316 µM
[10] = second compound 0.0316 µM, first compound 1 µM
[11] = second compound 0.0316 µM, first compound 3.16 µM
[12] = second compound 0.0316 µM, first compound 10 µM
[13] = second compound 0.1 µM, first compound 0.0316 µM
[14] = second compound 0.1 µM, first compound 0.1 µM
[15] = second compound 0.1 µM, first compound 0.316 µM
[16] = second compound 0.1 µM, first compound 1 µM
[17] = second compound 0.1 µM, first compound 3.16 µM
[18] = second compound 0.1 µM, first compound 10 µM
[19] = second compound 0.316 µM, first compound 0.0316 µM
[20] = second compound 0.316 µM, first compound 0.1 µM
[21] = second compound 0.316 µM, first compound 0.316 µM
[22] = second compound 0.316 µM, first compound 1 µM
[23] = second compound 0.316 µM, first compound 3.16 µM
[24] = second compound 0.316 µM, first compound 10 µM
[25] = second compound 1 µM, first compound 0.0316 µM
[26] = second compound 1 µM, first compound 0.1 µM
[27] = second compound 1 µM, first compound 0.316 µM
[28] = second compound 1 µM, first compound 1 µM
[29] = second compound 1 µM, first compound 3.16 µM
[30] = second compound 1 µM, first compound 10 µM
[31] = second compound 3.16 µM, first compound 0.0316 µM
[32] = second compound 3.16 µM, first compound 0.1 µM
[33] = second compound 3.16 µM, first compound 0.316 µM
[34] = second compound 3.16 µM, first compound 1 µM
[35] = second compound 3.16 µM, first compound 3.16 µM
[36] = second compound 3.16 µM, first compound 10 µM
[37] = second compound 10 µM, first compound 0.0316 µM
[38] = second compound 10 µM, first compound 0.1 µM
[39] = second compound 10 µM, first compound 0.316 µM
[40] = second compound 10 µM, first compound 1 µM
[41] = second compound 10 µM, first compound 3.16 µM
[42] = second compound 10 µM, first compound 10 µM
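Note: spheroids exposed to compounds for 7 days before readout.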
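Throughout, for viability, T/C: 100% = DMSO vehicle wells with luminescence normalized to vehicle control.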

SMILES: COc1cccc2c1C(=O)c1c(O)c3c(c(O)c1C2=O)CC(O)(C(=O)CO)CC3OC1CC(N)C(O)C(C)O1 (centres undefined)
viability, T/C (compound 0.0316 µM): 93.4% and 109%
viability, T/C (compound 0.1 µM): 85.3% and 45.3%
viability, T/C (compound 0.316 µM): 78.4% and 15.7%
viability, T/C (compound 1 µM): 16.1% and 0.8%
viability, T/C (compound 3.16 µM): 0.18% and 0.27%
viability, T/C (compound 10 µM): 0.14% and 0.26%
IC50 (curve of compound): 533 nM and 92.5 nM

SMILES: C#Cc1c(F)ccc2cc(O)cc(-c3ncc4c(N5CC6CCC(C5)N6)nc(OCC56CCCN5CC(F)C6)nc4c3F)c12 (centres undefined) + CN1CCN(c2cc(C(=O)Nc3cc4cc(-c5cnn(C)c5)ccc4cn3)ccn2)CC1
IC50 [1]: > 10000 nM
IC50 [2]: > 10000 nM
IC50 [3]: < 31.6 nM
IC50 [4]: < 31.6 nM
IC50 [5]: < 31.6 nM
IC50 [6]: < 31.6 nM
viability, T/C [7]: 104%
viability, T/C [8]: 75.3%
viability, T/C [9]: 106%
viability, T/C [10]: 113%
viability, T/C [11]: 93.2%
viability, T/C [12]: 101%
viability, T/C [13]: 96.8%
viability, T/C [14]: 76.8%
viability, T/C [15]: 102%
viability, T/C [16]: 86%
viability, T/C [17]: 101%
viability, T/C [18]: 107%
viability, T/C [19]: 25%
viability, T/C [20]: 29.1%
viability, T/C [21]: 26.9%
viability, T/C [22]: 28.1%
viability, T/C [23]: 21.8%
viability, T/C [24]: 21.1%
viability, T/C [25]: 0.26%
viability, T/C [26]: 0.25%
viability, T/C [27]: 0.72%
viability, T/C [28]: 0.3%
viability, T/C [29]: 1.23%
viability, T/C [30]: 0.75%
viability, T/C [31]: 0.23%
viability, T/C [32]: 3.14%
viability, T/C [33]: 0.23%
viability, T/C [34]: 0.18%
viability, T/C [35]: 2.07%
viability, T/C [36]: 0.17%
viability, T/C [37]: 0.21%
viability, T/C [38]: 1.2%
viability, T/C [39]: 2.26%
viability, T/C [40]: 0.7%
viability, T/C [41]: 3.78%
viability, T/C [42]: 0.83%

SMILES: CC(CO)NC(=O)c1cc(-c2ccc(Cl)cc2)nn(-c2cnn(C)c2)c1=O (centres undefined) + CN1CCN(c2cc(C(=O)Nc3cc4cc(-c5cnn(C)c5)ccc4cn3)ccn2)CC1
IC50 [1]: > 10000 nM
IC50 [2]: > 10000 nM
IC50 [3]: < 31.6 nM
IC50 [4]: < 31.6 nM
IC50 [5]: < 31.6 nM
IC50 [6]: < 31.6 nM
viability, T/C [7]: 104%
viability, T/C [8]: 73.7%
viability, T/C [9]: 86.5%
viability, T/C [10]: 86.2%
viability, T/C [11]: 93.7%
viability, T/C [12]: 103%
viability, T/C [13]: 92%
viability, T/C [14]: 91%
viability, T/C [15]: 96.7%
viability, T/C [16]: 89.7%
viability, T/C [17]: 124%
viability, T/C [18]: 120%
viability, T/C [19]: 22.2%
viability, T/C [20]: 21%
viability, T/C [21]: 27.3%
viability, T/C [22]: 23.4%
viability, T/C [23]: 24.6%
viability, T/C [24]: 26.9%
viability, T/C [25]: 0.2%
viability, T/C [26]: 2.31%
viability, T/C [27]: 1.11%
viability, T/C [28]: 0.21%
viability, T/C [29]: 2.03%
viability, T/C [30]: 3.08%
viability, T/C [31]: 0.21%
viability, T/C [32]: 0.65%
viability, T/C [33]: 4.15%
viability, T/C [34]: 0.22%
viability, T/C [35]: 2.88%
viability, T/C [36]: 2.53%
viability, T/C [37]: 0.26%
viability, T/C [38]: 0.28%
viability, T/C [39]: 2.2%
viability, T/C [40]: 1.23%
viability, T/C [41]: 4.13%
viability, T/C [42]: 3.6%

More lines, main results first:

IC50 (compound alone, run of 08/01/2023): 130 nM [middle of 12 runs]
SMILES: CNC(=O)c1ccc(Nc2nc(OC3CCCC3)c3c(-c4ccc5nc(C)oc5c4)c[nH]c3n2)c(OC)c1
viability, T/C (compound 0.1 µM): 54.9% [middle of 12 runs]
viability, T/C (compound 0.316 µM): 34.4% [middle of 12 runs]
viability, T/C (compound 1 µM): 22.6% [middle of 12 runs]
viability, T/C (compound 3.16 µM): 16% [middle of 12 runs]
viability, T/C (compound 10 µM): 15.4% [middle of 12 runs]

IC50 (curve of compound): > 10000 nM
SMILES: COc1ccc([C@@H](O)c2cc(-c3ncnc4cc(N5CCOCC5)ccc34)c(F)cc2Cl)nn1
viability, T/C (compound 0.0316 µM): 106% and 119%
viability, T/C (compound 0.1 µM): 88.3% and 115%
viability, T/C (compound 0.316 µM): 98.2% and 98.9%
viability, T/C (compound 1 µM): 102% and 77.9%
viability, T/C (compound 3.16 µM): 77.2% and 117%
viability, T/C (compound 10 µM): 99.1% and 81.8%
